Data published in patent US20140357512A1, “HISTONE DEACETYLASE (HDAC) BIOMARKERS IN MULTIPLE MYELOMA” (priority 2013, published 2014).

System: human myeloma cell line MM.1S
Test: SILAC acetylated-lysine peptide profiling, HDAC inhibitor vs DMSO (light/heavy ratio)
Type: cell-based
Description: An embodiment of the invention comprises utilizing the SILAC method in order to quantitate changes in protein expression between two or more populations of cells. The SILAC method is a technique based on mass spectrometry that detects differences in protein abundance among samples using non-radioactive isotopic labeling. The SILAC method is known in the art, and described in detail in Ong et al., “Stable Isotope Labeling by Amino Acids in Cell Culture, SILAC, as a Simple and Accurate Approach to Expression Proteomics”, Molecular & Cellular Proteomics, vol. 1, pp. 376-386 (2002), which is incorporated herein by reference in its entirety.
Briefly, the SILAC method involves growing two populations of cells in cell culture. The first population of cells is grown in growth media containing normal amino acids (“normal media”). The second population of cells is grown in media lacking a standard essential amino acid (such as lysine), but is then supplemented with a non-radioactive, isotopically labeled form of that essential amino acid (such as lysine labeled with ^13C atoms, rather than normal ^12C atoms), which is called “heavy media”. When the two populations of cells are each growing in the medium, they incorporate the amino acids into all of their proteins. The growth of cells maintained in the heavy media is no different from that in normal media. All peptides containing the heavy amino acids are heavier than their normal counterparts. The cells from each of the two populations of cells are lysed. The lysates from each of the two cell populations are then combined. The combined cell lysates are then analyzed by mass spectrometry. Pairs of chemically identical peptides of different stable isotope composition can be differentiated in a mass spectrometer due to their difference in mass. The ratio of peak intensities in the mass spectrum for such peptide pairs reflects the abundance ratio for the two proteins.
This example describes SILAC studies that were performed to compare the effects of three different HDAC inhibitors (Compound A, Compound B, and tubastatin A) to a control on a human multiple myeloma cell line. The HDAC inhibitors were also compared amongst themselves to determine differences in their effects.
A human myeloma cell line MM.1S was grown using either ^12C (light) or ^13C (heavy) lysine containing culture medium. The “heavy” cells were treated with DMSO as the control, and the “light” cells were treated with a single HDAC inhibitor at 37° C. for 6 hours. The heavy and light cells were lysed, and the lysates were mixed in 1:1 ratio and digested with the protease trypsin. The acetylated lysine containing peptides (due to the action of the HDAC inhibitor) in the digested peptide pool were captured by a non-specific anti-acetylated lysine antibody cocktail (the antibodies identify both light and heavy acetylated peptides), and subjected to mass spectrometry analysis in order to identify thousands of individual peptides.
Thousands of peptides were identified in pairs (^12C and ^13C) due to their known mass differences. The amino acid sequence and quantitative ratio (Light/Heavy) of a given peptide in two differentially treated cell lysates were then determined and annotated with their possible protein (gene) sources.
As stated above, three HDAC inhibitors (Compound A, Compound B, and Tubastatin A) were used. Thus, the SILAC method was performed three times, with a different HDAC inhibitor compared to a control each time. Accordingly, there are three pairs of quantitative data in the table below, i.e., Compound A:DMSO, Compound B:DMSO, and Tubastatin A:DMSO. A cut-off of 1.30 fold of change (increase or decrease) was then used to determine “changed” or “+” in the table, and any peptides with a fold of change less than 1.3 fold were determined to be “unchanged” or “0” in the table. Those peptides that were not identified were marked as “NA” in the table. […]

O=C(NO)c1cnc(NC2(c3cccc(F)c3)CCCCC2)nc1 [Compound B, 2-((1-(3-fluorophenyl)cyclohexyl)amino)-N-hydroxypyrimidine-5-carboxamide]
light to heavy ratio (L/H ratio) of acetylated peptide SEVDMLK(ac)IR (SEQ ID NO: 295) (Putative annexin A2-like protein [302], ANXA2P2, drug:DMSO): 0.00 log 2
light to heavy ratio (L/H ratio) of acetylated peptide K(ac)[…] (SEQ ID NO: 358) (Putative annexin A2-like protein [310], ANXA2P2, drug:DMSO): 0.66 log 2
L/H ratio of acetylated peptide (QLNDVK(ac)[…] (SEQ ID NO: 386), Scavenger mRNA-decapping enzyme DcpS [128], DCPS): 0.97 log 2
L/H ratio of acetylated peptide EIDSVK(ac)[…] (SEQ ID NO: 73) (RAC2 [153], log 2 scale, drug vs DMSO): 0.00
light to heavy ratio (L/H ratio) of acetylated peptide, log 2 scale (RPAVK(ac)QFHDSK (SEQ ID NO: 203), 60S ribosomal protein L18a [143], RPL18A): 0.00
L/H ratio of acetylated peptide FIDTTSK(ac)FGHGR (SEQ ID NO: 83) (RPL3L [373], log 2 scale, drug vs DMSO): 0.00
L/H ratio of acetylated peptide AASLK(ac)SNYNLPMHK (SEQ ID NO: 84) (RPL4 [274], log 2 scale, drug vs DMSO): 0.00
L/H ratio of acetylated peptide NFLGEK(ac)YIR (SEQ ID NO: 86) (RPL9 [121], log 2 scale, drug vs DMSO): 0.00
L/H ratio of acetylated peptide […](ac)SR (SEQ ID NO: 79) (RPL18A [41], log 2 scale, drug vs DMSO): 0.00
L/H ratio of acetylated peptide YLK(ac)YLTK (SEQ ID NO: 81) (RPL22 [84], log 2 scale, drug vs DMSO): 0.00
L/H ratio of acetylated peptide INFDK(ac)YHPGYFGK (SEQ ID NO: 82) (RPL27A [47], log 2 scale, drug vs DMSO): 0.00
L/H ratio of acetylated peptide LK(ac)[…] (SEQ ID NO: 89) (RPS4X [53], log 2 scale, drug vs DMSO): 0.00
L/H ratio of acetylated peptide SFQK(ac)IQVR (SEQ ID NO: 90) (RPS7 [74], log 2 scale, drug vs DMSO): 0.00
L/H ratio of acetylated peptide […](ac)GK (SEQ ID NO: 87) (RPS23 [135], log 2 scale, drug vs DMSO): 0.00
L/H ratio of acetylated peptide LAVLK(ac)YYK (SEQ ID NO: 88) (RPS27A [104], log 2 scale, drug vs DMSO): 0.00
light to heavy ratio (L/H ratio) of acetylated peptide […](ac)YK (SEQ ID NO: 360) (Rho GDP-dissociation inhibitor 2 [47], ARHGDIB, drug:DMSO): 0.60 log 2
light to heavy ratio (L/H ratio) of acetylated peptide […](ac)R (SEQ ID NO: 334) (S1 IF1 type family protein [56], EIF1AXP1, drug:DMSO): −0.40 log 2
L/H ratio of acetylated peptide LAELK(ac)QECLAR (SEQ ID NO: 94) (SARNP 17], log 2 scale, drug vs DMSO): 0.00
L/H ratio of acetylated peptide (ac)ATETVELHK(ac)LK (SEQ ID NO: 93) (SARNP [10], log 2 scale, drug vs DMSO): 0.00
L/H ratio of acetylated peptide (SELEFK(ac)FNR (SEQ ID NO: 422), Sialic acid synthase [61], NANS): 0.53 log 2
L/H ratio of acetylated peptide EHTALLK(ac)IEGVYAR (SEQ ID NO: 630, 60S ribosomal protein L35a [29], RPL35A): 0.00 log 2
L/H ratio of acetylated peptide NDEELNK(ac)LLGR (SEQ ID NO: 634, Histone H2A type 1-B/E [96], HIST1H2AE, HIST1H2AB, HIST1H2AD, HIST1H2AG, HIST1H2AK, HIST1H2AL, HIST1H2AM, HIST1H2AJ, HIST1H2AI): 0.00 log 2
L/H ratio of acetylated peptide TFK(ac)[…] (SEQ ID NO: 636, 60S ribosomal protein L3 [103], SNORD43, RPL3): 0.00 log 2
L/H ratio of acetylated peptide YK(ac)[…] (SEQ ID NO: 637, Protein disulfide-isomerase [328], P4HB): 0.00 log 2
L/H ratio of acetylated peptide NAEK(ac)YAEEDRR (SEQ ID NO: 638, Stress-70 protein mitochondrial [567], HSPA9): 0.00 log 2
L/H ratio of acetylated peptide […](ac)DR (SEQ ID NO: 639, pyruvate dehydrogenase E1 component subunit alpha somatic form mitochondrial isoform 2 precursor [359], PDHA1): 0.00 log 2
L/H ratio of acetylated peptide VEYFLK(ac)WK (SEQ ID NO: 645, Chromobox protein homolog 3 [50], CBX3): 0.00 log 2
L/H ratio of acetylated peptide HYK(ac)TDFDK (SEQ ID NO: 646, Isocitrate dehydrogenase [NADP] mitochondrial [275], IDH2): 0.00 log 2
L/H ratio of acetylated peptide EGYAWAEDK(ac)EHCEEYGR (SEQ ID NO: 647, tRNA-splicing ligase RtcB homolog [190], C22orf28): 0.00 log 2
L/H ratio of acetylated peptide […](ac)QNK (SEQ ID NO: 650, Dihydrolipoyl dehydrogenase mitochondrial [143], DLD): 0.00 log 2
L/H ratio of acetylated peptide FYVK(ac)DHR (SEQ ID NO: 651, CDGSH iron-sulfur domain-containing protein 1 [37], CISD1): 0.00 log 2
L/H ratio of acetylated peptide HIVK(ac)EFK (SEQ ID NO: 653, Stress-70 protein mitochondrial [288], HSPA9): 0.00 log 2
L/H ratio of acetylated peptide MYKEEGLK(ac)AFYK (SEQ ID NO: 654, Isoform A of Phosphate carrier protein mitochondrial [214], SLC25A3): 0.00 log 2
L/H ratio of acetylated peptide […](ac)EFR (SEQ ID NO: 657, Isoform 1 of Clathrin heavy chain 1 [1264], CLTC): 0.00 log 2
L/H ratio of acetylated peptide YELTGK(ac)FER (SEQ ID NO: 659, Annexin A6 [81], ANXA6): 0.00 log 2
L/H ratio of acetylated peptide LAMVK(ac)AEPDVK (SEQ ID NO: 661, NADH dehydrogenase [ubiquinone] 1 alpha subcomplex subunit 5 [60], NDUFA5): 0.00 log 2
L/H ratio of acetylated peptide NEK(ac)LFYR (SEQ ID NO: 662, NADP-dependent malic enzyme mitochondrial [119], ME3): 0.00 log 2
L/H ratio of acetylated peptide DLSLDDFK(ac)GK (SEQ ID NO: 664, Thioredoxin-dependent peroxide reductase mitochondrial [91], PRDX3): 0.00 log 2
L/H ratio of acetylated peptide LTSDDVK(ac)EQIYK (SEQ ID NO: 669, 40S ribosomal protein S13 [34], RPS13): 0.00 log 2
L/H ratio of acetylated peptide SCNCLLLK(ac)[…] (SEQ ID NO: 670, Isoform alpha-enolase of Alpha-enolase [343], ENO1): 0.00 log 2
L/H ratio of acetylated peptide […](ac)FLIK (SEQ ID NO: 671, Methyltransferase-like protein 7A [105], METTL7A): 0.00 log 2
L/H ratio of acetylated peptide […](ac)QLK (SEQ ID NO: 672, Annexin A6 [442], ANXA6): 0.00 log 2
L/H ratio of acetylated peptide LENDK(ac)SFR (SEQ ID NO: 678, Isoform 1 of Enoyl-CoA delta isomerase 1 mitochondrial [89], ECI1): 0.00 log 2
L/H ratio of acetylated peptide LVAMK(ac)FLR (SEQ ID NO: 679, Isoform 1 of Nucleoside diphosphate kinase B [39], NME1, NME2, NME1-NME2): 0.00 log 2
L/H ratio of acetylated peptide SGK(ac)YDLDFK (SEQ ID NO: 688, Isoform alpha-enolase of Alpha-enolase [256], ENO1): 0.00 log 2
L/H ratio of acetylated peptide LYGDLK(ac)HLK (SEQ ID NO: 689, cDNA FLJ61478 highly similar to Succinate dehydrogenase (ubiquinone) flavoprotein subunit mitochondrial [547], SDHA): 0.00 log 2
L/H ratio of acetylated peptide TISAK(ac)YAEER (SEQ ID NO: 692, Isoform 1 of Myosin-9 [1459], MYH9): 0.00 log 2
L/H ratio of acetylated peptide (ac)ASNK(ac)TTLQK (SEQ ID NO: 693, Chromobox protein homolog 3 [5], CBX3): 0.00 log 2
L/H ratio of acetylated peptide KAVTK(ac)VQK (SEQ ID NO: 699, Histone H2B type 2-F [21], HIST2H2BF): 0.00 log 2
L/H ratio of acetylated peptide ILQK(ac)QGFK (SEQ ID NO: 700, Dihydrolipoyl dehydrogenase mitochondrial [267], DLD): 0.00 log 2
L/H ratio of acetylated peptide NK(ac)FGAPQK (SEQ ID NO: 701, Trifunctional enzyme subunit alpha mitochondrial [353], HADHA): 0.00 log 2
L/H ratio of acetylated peptide VTAVHK(ac)ANIMK (SEQ ID NO: 702, Isocitrate dehydrogenase [NAD] subunit gamma mitochondrial [221], IDH3G): 0.00 log 2
L/H ratio of acetylated peptide ACPEK(ac)HFAFK (SEQ ID NO: 703, Protein FAM3C [67], FAM3C): 0.00 log 2
L/H ratio of acetylated peptide QLAQK(ac)YNCDK (SEQ ID NO: 705, Ubiquitin-60S ribosomal protein L40 [88], UBA52): 0.00 log 2
L/H ratio of acetylated peptide […](ac)EDVK (SEQ ID NO: 706, Isoform 1 of ATP synthase subunit d mitochondrial [95], ATP5H): 0.00 log 2
L/H ratio of acetylated peptide ADK(ac)LAEEHSS (SEQ ID NO: 708, ATP synthase subunit beta mitochondrial [522], ATP5B): 0.00 log 2
L/H ratio of acetylated peptide DFGSFDK(ac)FK (SEQ ID NO: 709, Superoxide dismutase [Mn] mitochondrial [130], SOD2): 0.00 log 2
L/H ratio of acetylated peptide CSK(ac)LPSSTK(ac)SGWPR (SEQ ID NO: 711, cDNA FLJ75110 highly similar to Homo sapiens PHD finger protein 15 (PHF15) mRNA 3[2:38], PHF15): 0.00 log 2
L/H ratio of acetylated peptide KAINK(ac)AQK (SEQ ID NO: 712, Histone H2B type 1-M [21], HIST1H2BM): 0.00 log 2
L/H ratio of acetylated peptide TDLEK(ac)[…] (SEQ ID NO: 714, Putative annexin A2-like protein [157], ANXA2P2): 0.00 log 2
L/H ratio of acetylated peptide KGIEK(ac)NLGIGK (SEQ ID NO: 718, Malate dehydrogenase mitochondrial [301], MDH2): 0.00 log 2
L/H ratio of acetylated peptide QLYNIYAK(ac)HTK (SEQ ID NO: 720, Putative ATP-dependent Clp protease proteolytic subunit mitochondrial [211], CLPP): 0.00 log 2
L/H ratio of acetylated peptide GKGDK(ac)AQIEK (SEQ ID NO: 721, 60 kDa heat shock protein mitochondrial [364], HSPD1): 0.00 log 2
L/H ratio of acetylated peptide K(ac)FLVHNVK (SEQ ID NO: 722, 60S ribosomal protein L32 [76], RPL32): 0.00 log 2
